Experiments:
ER-α in MCF-7 cells = molecular target: T1, ER-α in MCF-7 cells (Homo sapiens, UniProt P03372); assay: Breast Cancer Cell ER-α In Cell Western Assay (SP1); format: cell-based; conditions: 4 or 24 hr post compound addition; for Emax: MCF7, SP1 antibody, read-out: ER-α In Cell Western Assay (SP1) Max Response; for DC50: SP1 antibody, read-out: ER-α In Cell Western Assay (SP1) IC50
T1 construct: endogenous in cells; host or cells: MCF-7
T1 sequence (P03372 1-595): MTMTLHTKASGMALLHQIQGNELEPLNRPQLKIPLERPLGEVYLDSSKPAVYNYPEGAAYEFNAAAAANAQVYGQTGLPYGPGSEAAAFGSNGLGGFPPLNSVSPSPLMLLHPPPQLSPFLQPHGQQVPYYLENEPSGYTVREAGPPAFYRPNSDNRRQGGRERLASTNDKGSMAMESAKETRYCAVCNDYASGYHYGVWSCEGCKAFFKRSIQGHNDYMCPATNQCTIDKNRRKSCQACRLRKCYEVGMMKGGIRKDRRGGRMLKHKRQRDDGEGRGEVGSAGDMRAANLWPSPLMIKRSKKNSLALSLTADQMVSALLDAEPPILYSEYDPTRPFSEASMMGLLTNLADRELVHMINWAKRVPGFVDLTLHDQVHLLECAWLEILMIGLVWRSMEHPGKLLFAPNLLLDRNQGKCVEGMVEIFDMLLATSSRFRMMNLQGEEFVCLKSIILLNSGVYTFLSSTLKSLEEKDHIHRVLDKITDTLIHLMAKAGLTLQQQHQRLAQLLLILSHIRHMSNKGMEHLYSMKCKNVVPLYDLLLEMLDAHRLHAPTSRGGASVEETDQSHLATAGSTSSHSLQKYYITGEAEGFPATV
In short: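 MCF-7 cells in charcoal-stripped FBS medium, treated with 11-point semilog dilutions (0.3–0.000003 μM final) for 4 or 24 h. Fixed cells immunostained with SP1 antibody (800 nm) and DRAQ5 DNA (700 nm); ER/DNA ratio expressed as % of untreated cells.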

MCF-7 cells = assay: Breast Cancer Cell Viability Assays (MCF-7, CellTiter-Glo); format: cell-based; conditions: 5 days' compound exposure; for IC50: Homo sapiens, MCF7, 120 h
In short: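 MCF-7 cells (320/well, RPMI with 10% FBS) exposed for 5 days to an eleven-point semilog series, 0.3–0.000003 μM final. Viability read by CellTiter-Glo luminescence, expressed as background-corrected percent of untreated cells.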

| SMILES | Emax (ER-α in MCF-7 cells) [%] | DC50 (ER-α in MCF-7 cells) [nM] | IC50 (MCF-7 cells) [nM] | MCF7 Viability Assay Max Response (MCF-7 cells) |
| --- | --- | --- | --- | --- |
| Cc1sccc1/C(=C(\c1ccc(/C=C/C(=O)O)cc1)c1ccc2scnc2c1)C1CCC1 [Example 86, (E)-3-(4-((E)-1-(Benzo[d]thiazol-5-yl)-2-cyclobutyl-2-(2-methylthiophen-3-yl)vinyl)phenyl)acrylic acid] | ≥ 40 | ≤ 100 | ≤ 100 | ++ (++ = a single % value ≧ 40%) |
| CC/C(=C(/c1ccc(/C=C/C(=O)O)cc1)c1ccc2[nH]nc(F)c2c1)c1ccc(C#N)cc1C [Example 105] | ≥ 40 | ≤ 100 | ≤ 100 | ++ (++ = a single % value ≧ 40%) |
| N#Cc1c(/C(=C(/c2ccccc2F)C2CCC2)c2ccc(/C=C/C(=O)O)cc2)ccc2[nH]ncc12 [Example 10, (E)-3-(4-((E)-1-(4-Cyano-1H-indazol-5-yl)-2-cyclobutyl-2-(2-fluorophenyl)vinyl)phenyl)acrylic acid] | ≥ 40 | ≤ 100 | ≤ 100 | ++ (++ = a single % value ≧ 40%) |
| Fc1n[nH]c2ccc(/C(=C(/c3ccccc3)C3CCC3)c3ccc(/C=C/c4cnc[nH]4)cc3)cc12 [Example 39, 5-((E)-1-(4-((E)-2-(1H-Imidazol-5-yl)vinyl)phenyl)-2-cyclobutyl-2-phenylvinyl)-3-fluoro-1H-indazole] | ≥ 40 | ≤ 100 | ≤ 100 | ++ (++ = a single % value ≧ 40%) |
| COc1nccc(/C(=C(\c2ccc(/C=C/C(=O)O)cc2)c2ccc3[nH]nc(F)c3c2)C2CCC2)c1C [Example 89, (E)-3-(4-((E)-2-Cyclobutyl-1-(3-fluoro-1H-indazol-5-yl)-2-(2-methoxy-3-methylpyridin-4-yl)vinyl)phenyl)acrylic acid] | ≥ 40 | ≤ 100 | ≤ 100 | ++ (++ = a single % value ≧ 40%) |
| O=C(O)/C=C/c1ccc(/C(=C(\c2ccccc2Cl)C2CC2)c2ccc3[nH]nc(F)c3c2)cc1 [Example 153, (E)-3-(4-((E)-2-(2-Chlorophenyl)-2-cyclopropyl-1-(3-fluoro-1H-indazol-5-yl)vinyl)phenyl)acrylic acid] | ≥ 40 | ≤ 100 | ≤ 100 | ++ (++ = a single % value ≧ 40%) |
| COc1cc(/C=C/C(=O)O)ccc1/C(=C(\c1ccccc1)C1CCC1)c1ccc2[nH]nc(F)c2c1 [Example 38, (E)-3-(4-((Z)-2-Cyclobutyl-1-(3-fluoro-1H-indazol-5-yl)-2-phenylvinyl)-3-methoxyphenyl)acrylic acid] | ≥ 40 | ≤ 100 | ≤ 100 | ++ (++ = a single % value ≧ 40%) |
| COc1cccc(/C(=C(\c2ccc(/C=C/C(=O)O)cc2)c2ccc3[nH]nc(F)c3c2)C2CCC2)c1 [Example 24, (E)-3-(4-((E)-2-Cyclobutyl-1-(3-fluoro-1H-indazol-5-yl)-2-(3-methoxyphenyl)vinyl)phenyl)acrylic acid] | ≥ 40 | ≤ 100 | ≤ 100 | ++ (++ = a single % value ≧ 40%) |

Second part, led by results:

| Emax (ER-α in MCF-7 cells) [%] | DC50 (ER-α in MCF-7 cells) [nM] | IC50 (MCF-7 cells) [nM] | SMILES | MCF7 Viability Assay Max Response (MCF-7 cells) |
| --- | --- | --- | --- | --- |
| ≥ 40 | ≤ 100 | ≤ 100 | O=C(O)/C=C/c1ccc(/C(=C(\c2ccc(OC(F)(F)F)cc2Cl)C2CCC2)c2ccc3scnc3c2)cc1 [Example 241, (E)-3-(4-((E)-1-(Benzo[d]thiazol-5-yl)-2-(2-chloro-4-(trifluoromethoxy)phenyl)-2-cyclobutylvinyl)phenyl)acrylic acid] | ++ (++ = a single % value ≧ 40%) |
| ≥ 40 | ≤ 100 | ≤ 100 | Cc1cc(S(C)(=O)=O)ccc1/C(=C(\c1ccc(/C=C/C(=O)O)cc1)c1ccc2[nH]nc(F)c2c1)C1CCC1 [Example 195, (E)-3-(4-((E)-2-Cyclobutyl-1-(3-fluoro-1H-indazol-5-yl)-2-(2-methyl-4-(methylsulfonyl)phenyl)vinyl)phenyl)acrylic acid] | ++ (++ = a single % value ≧ 40%) |
| ≥ 40 | ≤ 100 | ≤ 100 | COc1ccc(/C(=C(\c2ccc(/C=C/c3noc(=O)[nH]3)cc2)c2ccc3scnc3c2)C2CCC2)c(Cl)c1 [Example 278, 3-((E)-4-((E)-1-(Benzo[d]thiazol-5-yl)-2-(2-chloro-4-methoxyphenyl)-2-cyclobutylvinyl)styryl)-1,2,4-oxadiazol-5(4H)-one] | ++ (++ = a single % value ≧ 40%) |
| ≥ 40 | ≤ 100 | ≤ 100 | O=c1[nH]nc(/C=C/c2ccc(/C(=C(\c3ccccc3)C3CCC3)c3ccc4[nH]nc(F)c4c3)cc2)[nH]1 [Example 283, 3-((E)-4-((E)-2-Cyclobutyl-1-(3-fluoro-1H-indazol-5-yl)-2-phenylvinyl)styryl)-1H-1,2,4-triazol-5(4H)-one] | ++ (++ = a single % value ≧ 40%) |
| ≥ 40 | ≤ 100 | ≤ 100 | O=C(O)/C=C/c1ccc(/C(=C(\c2ccc(Cl)cc2Cl)C2CCC2)c2ccc3nccn3c2)cc1 [Example 220, (E)-3-(4-((E)-2-Cyclobutyl-2-(2,4-dichlorophenyl)-1-(imidazo[1,2-a]pyridin-6-yl)vinyl)phenyl)acrylic acid] | ++ (++ = a single % value ≧ 40%) |
| ≥ 40 | ≤ 100 | ≤ 100 | COc1ccc(/C(=C(\c2ccc(/C=C/C(=O)O)nc2)c2ccc3[nH]nc(F)c3c2)C2CCC2)c(Cl)c1 [Example 270, (E)-3-(5-((Z)-2-(2-Chloro-4-methoxyphenyl)-2-cyclobutyl-1-(3-fluoro-1H-indazol-5-yl)vinyl)pyridin-2-yl)acrylic acid] | ++ (++ = a single % value ≧ 40%) |
| ≥ 40 | ≤ 100 | ≤ 100 | O=C(O)/C=C/c1ccc(/C(=C(\c2ncc(C(F)(F)F)cc2Cl)C2CCC2)c2ccc3[nH]nc(F)c3c2)cc1 [Example 250, (E)-3-(4-((E)-2-(3-Chloro-5-(trifluoromethyl)pyridin-2-yl)-2-cyclobutyl-1-(3-fluoro-1H-indazol-5-yl)vinyl)phenyl)acrylic acid] | ++ (++ = a single % value ≧ 40%) |
| ≥ 40 | ≤ 100 | ≤ 100 | OCC1CN=C(/C=C/c2ccc(/C(=C(\c3ccccc3)C3CCC3)c3ccc4[nH]nc(F)c4c3)cc2)O1 (centres unmarked) [Example 192, (2-((E)-4-((E)-2-Cyclobutyl-1-(3-fluoro-1H-indazol-5-yl)-2-phenylvinyl)styryl)-4,5-dihydrooxazol-5-yl)methanol] | ++ (++ = a single % value ≧ 40%) |
| ≥ 40 | ≤ 100 | ≤ 100 | Fc1ccc(/C(=C(\c2ccc(/C=C/c3nnn[nH]3)cc2)c2ccc3scnc3c2)C2CCC2)c(Cl)c1 [Example 175, 5-((E)-1-(4-((E)-2-(2H-Tetrazol-5-yl)vinyl)phenyl)-2-(2-chloro-4-fluorophenyl)-2-cyclobutylvinyl)benzo[d]thiazole] | ++ (++ = a single % value ≧ 40%) |
| ≥ 40 | ≤ 100 | ≤ 100 | O=C(O)/C=C/c1ccc(/C(=C(\c2ncc(C(F)(F)F)cc2Cl)C2CCC2)c2ccc3scnc3c2)cc1 [Example 244, (E)-3-(4-((E)-1-(Benzo[d]thiazol-5-yl)-2-(3-chloro-5-(trifluoromethyl)pyridin-2-yl)-2-cyclobutylvinyl)phenyl)acrylic acid] | ++ (++ = a single % value ≧ 40%) |
| ≥ 40 | ≤ 100 | ≤ 100 | O=C(O)/C=C/c1ccc(/C(=C(\c2ccncc2Cl)C2CC2)c2ccc3[nH]nc(F)c3c2)cc1 [Example 157, (E)-3-(4-((E)-2-(3-Chloropyridin-4-yl)-2-cyclopropyl-1-(3-fluoro-1H-indazol-5-yl)vinyl)phenyl)acrylic acid] | ++ (++ = a single % value ≧ 40%) |
| ≥ 40 | ≤ 100 | ≤ 100 | O=C(O)/C=C/c1ccc(/C(=C(\c2ccc(C(F)(F)F)cc2Cl)C2CCC2)c2ccc3[nH]nc(F)c3c2)cc1 [Example 275, (E)-3-(4-((E)-2-(2-Chloro-4-(trifluoromethyl)phenyl)-2-cyclobutyl-1-(3-fluoro-1H-indazol-5-yl)vinyl)phenyl)acrylic acid] | ++ (++ = a single % value ≧ 40%) |
